Data published in ChEMBL document CHEMBL1159136, “Dipeptide mimetics can substitute for the receptor activation domain resulting in highly potent analogues of hPTH(136)” (Bioorg Med Chem Lett, 1996).
Square brackets hold non-standard residues; d marks the D form. Peptide text beside a SMILES is read from it. * marks the point of attachment. X6 = CC(=O)N(C(=O)[C@H](C)N)[C@H](C(=O)*)C(C)C; X7 = C[C@H](/C=C(\Cl)[C@H](C)N)C(=O)*; X5 = C[C@H](/C=C(\F)[C@H](C)N)C(=O)*; X4 = CC(=O)N(CC(=O)*)C(=O)[C@H](C)N; NMeV = CN[C@H](C(=O)O)C(C)C; N(iPr)Gly = CC(C)NCC(=O)O; NMeA = CN[C@@H](C)C(=O)O

Legend:
OK-1 [1] = experiment: Compound was evaluated for the intrinsic activity for accumulation of cyclic AMP in OK-1 cells.; type: functional, opossum
OK-1 [2] = experiment: Accumulation of cyclic AMP in OK-1 cells.; type: functional, cell-based, opossum; settings: opossum, OK-1
UMR106-06 [3] = experiment: Compound was evaluated for the intrinsic activity for accumulation of cyclic AMP in UMR10606 (rat osteosarcoma) cells.; type: functional
OK-1 [4] = experiment: Displacement of [125I]-chick PTHrP-(1-36)-NH2 from opossum (OK-1) kidney cells; type: functional
UMR106-06 [5] = experiment: Compound was evaluated for the accumulation of cyclic AMP in UMR10606 (rat osteosarcoma) cells.; type: functional, cell-based; settings: Rattus norvegicus, UMR106-06

Row | Structure (SMILES) | Intrinsic activity (OK-1 [1]) | EC50 (OK-1 [2]) | Intrinsic activity (UMR106-06 [3]) | pKD (OK-1 [4]) | EC50 (UMR106-06 [5])
1 | CC[C@H](C)[C@H](NC(=O)[C@H](CCC(=O)O)NC(=O)[C@H](CO)NC(=O)CN(C(=O)[C@H](C)N)C(C)C)C(=O)N[C@@H](CCC(N)=O)C(=O)N[C@@H](CC(C)C)C(=O)N[C@@H](CCSC)C(=O)N[C@@H](Cc1c[nH]cn1)C(=O)N[C@@H](CC(N)=O)C(=O)N[C@@H](CC(C)C)C(=O)NCC(=O)N[C@@H](CCCCN)C(=O)N[C@@H](Cc1c[nH]cn1)C(=O)N[C@@H](CC(C)C)C(=O)N[C@@H](CC(N)=O)C(=O)N[C@@H](CO)C(=O)N[C@@H](CCSC)C(=O)N[C@@H](CCC(=O)O)C(=O)N[C@@H](CCCN=C(N)N)C(=O)N[C@H](C(=O)N[C@@H](CCC(=O)O)C(=O)N[C@@H](Cc1c[nH]c2ccccc12)C(=O)N[C@@H](CC(C)C)C(=O)N[C@@H](CCCN=C(N)N)C(=O)N[C@@H](CCCCN)C(=O)N[C@@H](CCCCN)C(=O)N[C@@H](CC(C)C)C(=O)N[C@@H](CCC(N)=O)C(=O)N[C@@H](CC(=O)O)C(=O)N[C@H](C(=O)N[C@@H](Cc1c[nH]cn1)C(=O)N[C@@H](CC(N)=O)C(=O)N[C@@H](Cc1ccccc1)C(=O)N[C@H](C(=O)N[C@@H](C)C(N)=O)C(C)C)C(C)C)C(C)C (H-A[N(iPr)Gly]SEIQLMHNLGKHLNSMERVEWLRKKLQDVHNFVA-NH2) | 0.5 | 97.2 nM | 0.05 | 7.4 | 30 nM
2 | CC[C@H](C)[C@H](NC(=O)[C@H](CCC(=O)O)NC(=O)[C@H](CO)NC(=O)[C@H](C(C)C)N(C)C(=O)[C@H](C)N)C(=O)N[C@@H](CCC(N)=O)C(=O)N[C@@H](CC(C)C)C(=O)N[C@@H](CCSC)C(=O)N[C@@H](Cc1c[nH]cn1)C(=O)N[C@@H](CC(N)=O)C(=O)N[C@@H](CC(C)C)C(=O)NCC(=O)N[C@@H](CCCCN)C(=O)N[C@@H](Cc1c[nH]cn1)C(=O)N[C@@H](CC(C)C)C(=O)N[C@@H](CC(N)=O)C(=O)N[C@@H](CO)C(=O)N[C@@H](CCSC)C(=O)N[C@@H](CCC(=O)O)C(=O)N[C@@H](CCCN=C(N)N)C(=O)N[C@H](C(=O)N[C@@H](CCC(=O)O)C(=O)N[C@@H](Cc1c[nH]c2ccccc12)C(=O)N[C@@H](CC(C)C)C(=O)N[C@@H](CCCN=C(N)N)C(=O)N[C@@H](CCCCN)C(=O)N[C@@H](CCCCN)C(=O)N[C@@H](CC(C)C)C(=O)N[C@@H](CCC(N)=O)C(=O)N[C@@H](CC(=O)O)C(=O)N[C@H](C(=O)N[C@@H](Cc1c[nH]cn1)C(=O)N[C@@H](CC(N)=O)C(=O)N[C@@H](Cc1ccccc1)C(=O)N[C@H](C(=O)N[C@@H](C)C(N)=O)C(C)C)C(C)C)C(C)C (H-A[NMeV]SEIQLMHNLGKHLNSMERVEWLRKKLQDVHNFVA-NH2) | 1 | 3.5 nM | 0.9 | 8.4 | 4.4 nM
3 | CC[C@H](C)[C@H](NC(=O)[C@H](CCC(=O)O)NC(=O)[C@H](CO)NC(=O)[C@H](C(C)C)N(C)C(=O)[C@H](C)NC)C(=O)N[C@@H](CCC(N)=O)C(=O)N[C@@H](CC(C)C)C(=O)N[C@@H](CCSC)C(=O)N[C@@H](Cc1c[nH]cn1)C(=O)N[C@@H](CC(N)=O)C(=O)N[C@@H](CC(C)C)C(=O)NCC(=O)N[C@@H](CCCCN)C(=O)N[C@@H](Cc1c[nH]cn1)C(=O)N[C@@H](CC(C)C)C(=O)N[C@@H](CC(N)=O)C(=O)N[C@@H](CO)C(=O)N[C@@H](CCSC)C(=O)N[C@@H](CCC(=O)O)C(=O)N[C@@H](CCCN=C(N)N)C(=O)N[C@H](C(=O)N[C@@H](CCC(=O)O)C(=O)N[C@@H](Cc1c[nH]c2ccccc12)C(=O)N[C@@H](CC(C)C)C(=O)N[C@@H](CCCN=C(N)N)C(=O)N[C@@H](CCCCN)C(=O)N[C@@H](CCCCN)C(=O)N[C@@H](CC(C)C)C(=O)N[C@@H](CCC(N)=O)C(=O)N[C@@H](CC(=O)O)C(=O)N[C@H](C(=O)N[C@@H](Cc1c[nH]cn1)C(=O)N[C@@H](CC(N)=O)C(=O)N[C@@H](Cc1ccccc1)C(=O)N[C@H](C(=O)N[C@@H](C)C(N)=O)C(C)C)C(C)C)C(C)C (H-[NMeA][NMeV]SEIQLMHNLGKHLNSMERVEWLRKKLQDVHNFVA-NH2) | 1 | 6.5 nM | 1 | 8.5 | 4.9 nM
4 | CC[C@H](C)[C@H](NC(=O)[C@H](CCC(=O)O)NC(=O)[C@H](CO)NC(=O)CN(C(C)=O)C(=O)[C@H](C)N)C(=O)N[C@@H](CCC(N)=O)C(=O)N[C@@H](CC(C)C)C(=O)N[C@@H](CCSC)C(=O)N[C@@H](Cc1c[nH]cn1)C(=O)N[C@@H](CC(N)=O)C(=O)N[C@@H](CC(C)C)C(=O)NCC(=O)N[C@@H](CCCCN)C(=O)N[C@@H](Cc1c[nH]cn1)C(=O)N[C@@H](CC(C)C)C(=O)N[C@@H](CC(N)=O)C(=O)N[C@@H](CO)C(=O)N[C@@H](CCSC)C(=O)N[C@@H](CCC(=O)O)C(=O)N[C@@H](CCCN=C(N)N)C(=O)N[C@H](C(=O)N[C@@H](CCC(=O)O)C(=O)N[C@@H](Cc1c[nH]c2ccccc12)C(=O)N[C@@H](CC(C)C)C(=O)N[C@@H](CCCN=C(N)N)C(=O)N[C@@H](CCCCN)C(=O)N[C@@H](CCCCN)C(=O)N[C@@H](CC(C)C)C(=O)N[C@@H](CCC(N)=O)C(=O)N[C@@H](CC(=O)O)C(=O)N[C@H](C(=O)N[C@@H](Cc1c[nH]cn1)C(=O)N[C@@H](CC(N)=O)C(=O)N[C@@H](Cc1ccccc1)C(=O)N[C@H](C(=O)N[C@@H](C)C(N)=O)C(C)C)C(C)C)C(C)C (X4-SEIQLMHNLGKHLNSMERVEWLRKKLQDVHNFVA-NH2) | 0.2 | 117 nM | 0.8 | 7.1 | 958 nM
5 | CC[C@H](C)[C@H](NC(=O)[C@H](CCC(=O)O)NC(=O)[C@H](CO)NC(=O)[C@H](C)/C=C(\F)[C@H](C)N)C(=O)N[C@@H](CCC(N)=O)C(=O)N[C@@H](CC(C)C)C(=O)N[C@@H](CCSC)C(=O)N[C@@H](Cc1c[nH]cn1)C(=O)N[C@@H](CC(N)=O)C(=O)N[C@@H](CC(C)C)C(=O)NCC(=O)N[C@@H](CCCCN)C(=O)N[C@@H](Cc1c[nH]cn1)C(=O)N[C@@H](CC(C)C)C(=O)N[C@@H](CC(N)=O)C(=O)N[C@@H](CO)C(=O)N[C@@H](CCSC)C(=O)N[C@@H](CCC(=O)O)C(=O)N[C@@H](CCCN=C(N)N)C(=O)N[C@H](C(=O)N[C@@H](CCC(=O)O)C(=O)N[C@@H](Cc1c[nH]c2ccccc12)C(=O)N[C@@H](CC(C)C)C(=O)N[C@@H](CCCN=C(N)N)C(=O)N[C@@H](CCCCN)C(=O)N[C@@H](CCCCN)C(=O)N[C@@H](CC(C)C)C(=O)N[C@@H](CCC(N)=O)C(=O)N[C@@H](CC(=O)O)C(=O)N[C@H](C(=O)N[C@@H](Cc1c[nH]cn1)C(=O)N[C@@H](CC(N)=O)C(=O)N[C@@H](Cc1ccccc1)C(=O)N[C@H](C(=O)N[C@@H](C)C(N)=O)C(C)C)C(C)C)C(C)C (X5-SEIQLMHNLGKHLNSMERVEWLRKKLQDVHNFVA-NH2) | 0.6 | 9.1 nM | 0.95 | 8.2 | 13 nM
6 | CC[C@H](C)[C@H](NC(=O)[C@H](CCC(=O)O)NC(=O)[C@H](CO)NC(=O)[C@H](C(C)C)N(C(C)=O)C(=O)[C@H](C)N)C(=O)N[C@@H](CCC(N)=O)C(=O)N[C@@H](CC(C)C)C(=O)N[C@@H](CCSC)C(=O)N[C@@H](Cc1c[nH]cn1)C(=O)N[C@@H](CC(N)=O)C(=O)N[C@@H](CC(C)C)C(=O)NCC(=O)N[C@@H](CCCCN)C(=O)N[C@@H](Cc1c[nH]cn1)C(=O)N[C@@H](CC(C)C)C(=O)N[C@@H](CC(N)=O)C(=O)N[C@@H](CO)C(=O)N[C@@H](CCSC)C(=O)N[C@@H](CCC(=O)O)C(=O)N[C@@H](CCCN=C(N)N)C(=O)N[C@H](C(=O)N[C@@H](CCC(=O)O)C(=O)N[C@@H](Cc1c[nH]c2ccccc12)C(=O)N[C@@H](CC(C)C)C(=O)N[C@@H](CCCN=C(N)N)C(=O)N[C@@H](CCCCN)C(=O)N[C@@H](CCCCN)C(=O)N[C@@H](CC(C)C)C(=O)N[C@@H](CCC(N)=O)C(=O)N[C@@H](CC(=O)O)C(=O)N[C@H](C(=O)N[C@@H](Cc1c[nH]cn1)C(=O)N[C@@H](CC(N)=O)C(=O)N[C@@H](Cc1ccccc1)C(=O)N[C@H](C(=O)N[C@@H](C)C(N)=O)C(C)C)C(C)C)C(C)C (X6-SEIQLMHNLGKHLNSMERVEWLRKKLQDVHNFVA-NH2) | 0.8 | 9.9 nM | 1 | 7.9 | 15 nM
7 | CC[C@H](C)[C@H](NC(=O)[C@H](CCC(=O)O)NC(=O)[C@H](CO)NC(=O)[C@H](C)/C=C(\Cl)[C@H](C)N)C(=O)N[C@@H](CCC(N)=O)C(=O)N[C@@H](CC(C)C)C(=O)N[C@@H](CCSC)C(=O)N[C@@H](Cc1c[nH]cn1)C(=O)N[C@@H](CC(N)=O)C(=O)N[C@@H](CC(C)C)C(=O)NCC(=O)N[C@@H](CCCCN)C(=O)N[C@@H](Cc1c[nH]cn1)C(=O)N[C@@H](CC(C)C)C(=O)N[C@@H](CC(N)=O)C(=O)N[C@@H](CO)C(=O)N[C@@H](CCSC)C(=O)N[C@@H](CCC(=O)O)C(=O)N[C@@H](CCCN=C(N)N)C(=O)N[C@H](C(=O)N[C@@H](CCC(=O)O)C(=O)N[C@@H](Cc1c[nH]c2ccccc12)C(=O)N[C@@H](CC(C)C)C(=O)N[C@@H](CCCN=C(N)N)C(=O)N[C@@H](CCCCN)C(=O)N[C@@H](CCCCN)C(=O)N[C@@H](CC(C)C)C(=O)N[C@@H](CCC(N)=O)C(=O)N[C@@H](CC(=O)O)C(=O)N[C@H](C(=O)N[C@@H](Cc1c[nH]cn1)C(=O)N[C@@H](CC(N)=O)C(=O)N[C@@H](Cc1ccccc1)C(=O)N[C@H](C(=O)N[C@@H](C)C(N)=O)C(C)C)C(C)C)C(C)C (X7-SEIQLMHNLGKHLNSMERVEWLRKKLQDVHNFVA-NH2) | 1 | 5.5 nM | 1 | 8.9 | 5 nM
